Reference: PubChem BioAssay AID248 (DTP/NCI, 2004)
Where “and” joins values, the source holds several entries; their conditions need not be identical. Equal values may be shown once. Inconclusive results and toxic doses are left out. No stated cut-off is given here; in the data, active means T/C of 150% or more; inactive means T/C below 125%. Peptide text beside a SMILES is read from it. * marks the point of attachment. Boc = CC(C)(C)OC(=O)*

System: L1210 leukemia ip in BDF1 mice, survival T/C
Assay: NCI In Vivo Anticancer Drug Screen. Data for tumor model L1210 Leukemia (intraperitoneal) in B6D2F1 (BDF1) mice
Details: endpoint: mean survival time, higher = longer survival
Outline: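 Transplantable tumor model; survival measured in treated vs vehicle control mice. Value = treated/control.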

[1] = dose: 100.0 mg/kg/injection, schedule: Q04DX002 (ip), vehicle: saline with Tween-80
[2] = dose: 200.0 mg/kg/injection, schedule: Q04DX002 (ip), vehicle: saline with Tween-80
[3] = dose: 400.0 mg/kg/injection, schedule: Q04DX002 (ip), vehicle: saline with Tween-80
[4] = dose: 75.0 mg/kg/injection, schedule: Q01DX001 (ip), vehicle: saline
[5] = dose: 150.0 mg/kg/injection, schedule: Q01DX001 (ip), vehicle: saline
[6] = dose: 200.0 mg/kg/injection, schedule: Q01DX001 (ip), vehicle: saline
[7] = dose: 400.0 mg/kg/injection, schedule: Q01DX001 (ip), vehicle: saline
[8] = dose: 100.0 mg/kg/injection, schedule: Q04DX003 (ip), vehicle: saline with Tween-80
[9] = dose: 200.0 mg/kg/injection, schedule: Q04DX003 (ip), vehicle: saline with Tween-80
[10] = dose: 400.0 mg/kg/injection, schedule: Q04DX003 (ip), vehicle: saline with Tween-80

Measured: T/C

[Cl][Pt+2][Cl].[NH-]C1CCCCC1.[NH-]C1CCCCC1
inactive: dose: 25.0 mg/kg/injection, schedule: Q04DX003 (ip), vehicle: saline 100 % of control | dose: 40.0 mg/kg/injection, schedule: Q04DX003 (ip), vehicle: Klucel (hydroxypropylcellulose) (HPC) 103 % of control | dose: 50.0 mg/kg/injection, schedule: Q04DX003 (ip), vehicle: saline 110 % of control | dose: 80.0 mg/kg/injection, schedule: Q04DX003 (ip), vehicle: Klucel (hydroxypropylcellulose) (HPC) 103 % of control | [1] 94 % of control | dose: 100.0 mg/kg/injection, schedule: Q04DX003 (ip), vehicle: saline 103 % of control | dose: 160.0 mg/kg/injection, schedule: Q04DX003 (ip), vehicle: Klucel (hydroxypropylcellulose) (HPC) 101 % of control | [2] 117 % of control | dose: 200.0 mg/kg/injection, schedule: Q04DX003 (ip), vehicle: saline 108 % of control | dose: 320.0 mg/kg/injection, schedule: Q04DX003 (ip), vehicle: Klucel (hydroxypropylcellulose) (HPC) 106 % of control | [3] 102 % of control | dose: 400.0 mg/kg/injection, schedule: Q04DX003 (ip), vehicle: saline 108 % of control | dose: 640.0 mg/kg/injection, schedule: Q04DX003 (ip), vehicle: Klucel (hydroxypropylcellulose) (HPC) 102 % of control

O=C(CC(=O)c1ccc(Cl)cc1)NC(=O)c1ccccc1
inactive: dose: 100.0 mg/kg/injection, schedule: Q01DX001 (ip), vehicle: other 96 % of control | dose: 200.0 mg/kg/injection, schedule: Q01DX001 (ip), vehicle: other 91 % of control | dose: 400.0 mg/kg/injection, schedule: Q01DX001 (ip), vehicle: other 89 % of control

COC(=O)CNC(=O)C(CC(C)C)NC(=O)C(CC(C)C)NC(=O)OC(C)(C)C (stereo not drawn) (Boc-Leu-Leu-Gly-OMe; configuration not given here)
inactive: [4] 106 % of control | [5] 98 % of control | dose: 300.0 mg/kg/injection, schedule: Q01DX001 (ip), vehicle: saline 98 % of control

NCCCCC(=O)NC(CCCCNC(=O)OCc1ccccc1)C(=O)NCCCCC(=O)NC(CCCCNC(=O)OCc1ccccc1)C(=O)NCCCCC(=O)NC(CCCCNC(=O)OCc1ccccc1)C(=O)NCCCCC(=O)NC(CCCCNC(=O)OCc1ccccc1)C(=O)NCCCCC(=O)NC(CCCCNC(=O)OCc1ccccc1)C(=O)NCCCCC(=O)NC(CCCCNC(=O)OCc1ccccc1)C(=O)NCCCCC(=O)NC(CCCCNC(=O)OCc1ccccc1)C(=O)O (configuration not stated)
inactive: dose: 100.0 mg/kg/injection, schedule: Q01DX001 (ip), vehicle: saline 92 % of control | [6] 90 % of control | [7] 95 % of control

Oc1c(Cl)cc(Cl)c(Cl)c1CN1CCOCC1
inactive: dose: 55.0 mg/kg/injection, schedule: Q01DX Z (ip), vehicle: methylcellulose (MC) 98 % of control | dose: 83.0 mg/kg/injection, schedule: Q01DX Z (ip), vehicle: methylcellulose (MC) 116 % of control | dose: 125.0 mg/kg/injection, schedule: Q01DX Z (ip), vehicle: methylcellulose (MC) 104 % of control

O=C(N/N=C/c1cc(Cl)ccc1[N+](=O)[O-])c1cccc2ccccc12
inactive: [6] 101 % of control | [7] 97 % of control

C(=P(c1ccccc1)(c1ccccc1)c1ccccc1)[P+](c1ccccc1)(c1ccccc1)c1ccccc1
inactive: dose: 0.78 mg/kg/injection, schedule: Q01DX009 (ip), vehicle: saline 102 % of control and 109 % of control | dose: 1.56 mg/kg/injection, schedule: Q01DX009 (ip), vehicle: saline 98 % of control and 88 % of control | dose: 3.12 mg/kg/injection, schedule: Q01DX009 (ip), vehicle: saline 100 % of control | dose: 3.13 mg/kg/injection, schedule: Q01DX001 (ip), vehicle: saline 90 % of control | dose: 3.13 mg/kg/injection, schedule: Q04DX002 (ip), vehicle: saline 97 % of control | dose: 3.13 mg/kg/injection, schedule: Q04DX003 (ip), vehicle: saline 102 % of control | dose: 6.0 mg/kg/injection, schedule: Q01DX009 (ip), vehicle: saline 106 % of control | dose: 6.25 mg/kg/injection, schedule: Q01DX001 (ip), vehicle: saline 100 % of control | dose: 6.25 mg/kg/injection, schedule: Q01DX009 (ip), vehicle: saline 117 % of control | dose: 6.25 mg/kg/injection, schedule: Q04DX002 (ip), vehicle: saline 96 % of control and 100 % of control | dose: 6.25 mg/kg/injection, schedule: Q04DX003 (ip), vehicle: saline 106 % of control | dose: 9.3 mg/kg/injection, schedule: Q01DX009 (ip), vehicle: saline 95 % of control | dose: 12.5 mg/kg/injection, schedule: Q01DX001 (ip), vehicle: saline 97 % of control | dose: 12.5 mg/kg/injection, schedule: Q01DX009 (ip), vehicle: saline 115 % of control and 117 % of control | dose: 12.5 mg/kg/injection, schedule: Q04DX002 (ip), vehicle: saline 97 % of control and 99 % of control | dose: 12.5 mg/kg/injection, schedule: Q04DX003 (ip), vehicle: saline 101 % of control | dose: 13.0 mg/kg/injection, schedule: Q01DX009 (ip), vehicle: saline 93 % of control | dose: 100.0 mg/kg/injection, schedule: Q04DX002 (ip), vehicle: saline 90 % of control | dose: 200.0 mg/kg/injection, schedule: Q04DX002 (ip), vehicle: saline 93 % of control

CN=Cc1ccccc1O.CN=Cc1ccccc1O.[Cu+2]
inactive: dose: 4.68 mg/kg/injection, schedule: Q01DX009 (ip), vehicle: acetone 94 % of control | dose: 9.37 mg/kg/injection, schedule: Q01DX009 (ip), vehicle: acetone 92 % of control | dose: 18.75 mg/kg/injection, schedule: Q01DX009 (ip), vehicle: acetone 90 % of control | dose: 18.75 mg/kg/injection, schedule: Q04DX003 (ip), vehicle: acetone 95 % of control | dose: 37.5 mg/kg/injection, schedule: Q04DX003 (ip), vehicle: acetone 92 % of control | dose: 75.0 mg/kg/injection, schedule: Q01DX001 (ip), vehicle: acetone 92 % of control

FC(F)(F)c1nn[nH]n1
inactive: [8] 101 % of control | [9] 108 % of control | [10] 103 % of control

ClCCN(CCCl)c1ccc(C=Nc2ccc(-n3ccnc3)cc2)c(Cl)c1
inactive: dose: 80.0 mg/kg/injection, schedule: Q04DX002 (ip), vehicle: Klucel (hydroxypropylcellulose) (HPC) 95 % of control | dose: 160.0 mg/kg/injection, schedule: Q04DX002 (ip), vehicle: Klucel (hydroxypropylcellulose) (HPC) 102 % of control | dose: 320.0 mg/kg/injection, schedule: Q04DX002 (ip), vehicle: Klucel (hydroxypropylcellulose) (HPC) 98 % of control

N#CC(C#N)N=Nc1ccc(S(=O)(=O)Nc2ccccn2)cc1
inactive: [4] 95 % of control | [5] 90 % of control

CN1CCC2CCCCC2C1Cc1ccc(Oc2ccc(CC3C4CCCCC4CCN3C)cc2)cc1 (configuration not stated)
inactive: dose: 0.78 mg/kg/injection, schedule: Q04DX002 (ip), vehicle: Klucel (hydroxypropylcellulose) (HPC) 91 % of control | dose: 1.56 mg/kg/injection, schedule: Q04DX002 (ip), vehicle: Klucel (hydroxypropylcellulose) (HPC) 88 % of control | dose: 3.12 mg/kg/injection, schedule: Q04DX002 (ip), vehicle: Klucel (hydroxypropylcellulose) (HPC) 91 % of control

O=[N+]([O-])c1cccc(/C=C/C=C/c2ccc(S(=O)(=O)F)cc2Cl)c1
inactive: dose: 100.0 mg/kg/injection, schedule: Q01DX009 (ip), vehicle: saline with Tween-80 100 % of control | [8] 94 % of control | dose: 200.0 mg/kg/injection, schedule: Q01DX009 (ip), vehicle: saline with Tween-80 93 % of control | [9] 95 % of control | dose: 400.0 mg/kg/injection, schedule: Q01DX009 (ip), vehicle: saline with Tween-80 91 % of control | [10] 90 % of control

Cc1c(Cl)cccc1NC(=S)NC(=O)c1ccccc1
inactive: [1] 110 % of control | [2] 100 % of control | [3] 89 % of control
